Assay results: patent US20240358693A1, “METHODS OF TREATING PAIN” (Aisa Pharma, Inc., priority 2023, published 2024)

Key:
participants with SSc-RP [1] = assay: Pain score recorded during weekly RP attacks (11-point Likert scale); type: in vivo, human; conditions: for Average Pain Score [Mean (SD)]: on treatment, N = 24
Description: The absolute change in average pain score (11-point Likert scale) of weekly RP attacks from baseline to the end of each Dosing Period will be a secondary outcome variable. The sponsor-developed participant-informed diary will be used to record data. The average pain score of weekly RP attacks is defined as the total pain scores divided by total number of RP attacks within the last 7 days of each dosing period. Average of the last 7 days of screening assessments will be used as baseline for the analysis of all periods. The variable will be calculated similar to frequency data as before.

participants with SSc-RP [2] = assay: Adverse events and serious adverse events (safety, tolerability); type: in vivo
Description: An AE is any event, side effect, or other untoward medical occurrence that occurs in conjunction with the use of a medicinal product in humans, whether or not considered to have a causal relationship to this treatment.
Severity of AEs will be graded by the Investigator as one of: • Mild (Grade 1): A type of AE that is usually transient and may require only minimal treatment or therapeutic intervention.
An SAE is an AE occurring during any study phase (i.e., baseline, treatment, washout, or follow-up), and at any dose of the study drug (active or placebo), that fulfills one or more of the following: • Results in death • It is immediately life-threatening • It requires in participant hospitalization or prolongation of existing hospitalization • It results in persistent or significant disability or incapacity • Results in a congenital abnormality or birth defect • It is an important medical event that may jeopardize the participant or may require medical intervention to prevent one of the outcomes listed above.
Treatment-emergent AEs (TEAEs) are defined as AEs that occur or worsen after the dose of study drug. If the timing of the start of an AE could not be determined unambiguously from the start or end dates provided, it will be assumed to be a TEAE. An AE is considered related if the relationship to either of the study drug has been indicated as possibly or probably or definite related by the investigator. An AE leading to study withdrawal is defined as an AE that cause a subject early terminated from the study. AEs will be identified as emerging in the following parts: • TEAEs for Part A will be those that started during Part A (i.e., from the first dose in Part A to end of follow up of Part A). • TEAEs for Part B will be those that started during Part B (i.e., from the first dose in Part B to end of follow-up of Part B).
Adverse events were coded using the most current version of the MedDRA® Version 22.0 or higher. The analysis of AEs was based on the concept of treatment emergent AEs. Treatment emergent AEs were tabulated by treatment group and included the number of participants for whom the event occurred, the severity, and relationship to study drug. Treatment emergent AEs (TEAEs) leading to discontinuation and SAEs with onset after the start of study drug were also summarized. All AEs and SAEs (including those with onset or worsening before the start of study drug) through the end of the study were listed.

For `COCCOC(=O)C1=C(C)NC(C)=C(C(=O)OC/C=C/c2ccccc2)C1c1cccc([N+](=O)[O-])c1` (centres unmarked) [Cilnidipine, cilnidipine], the “Average Pain Score, Change From Baseline, Mean” value (participants with SSc-RP [1]; Cilnidipine 10 mg (n = 4)) was 0.47, the “Average Pain Score, Percent Change from Baseline, Mean” value (shortened to “Average Pain Score, Percent Change”) (participants with SSc-RP [1]; Cilnidipine 10 mg (n = 4)) was 11.76% and the “Average Pain Score [Mean (SD)]” value (participants with SSc-RP [1]; Cilnidipine 10 mg (n = 4)) was 2.82 (2.268). For the same compound, the “Average Pain Score [Mean (SD)]” value (participants with SSc-RP [1]; Cilnidipine 20 mg (n = 3)) was 1.28 (1.993), the “Average Pain Score, Change From Baseline, Mean” value (participants with SSc-RP [1]; Cilnidipine (20 mg) (n = 3)) was −0.47 and the “Average Pain Score, Percent Change” value (participants with SSc-RP [1]; Cilnidipine (20 mg) (n = 3)) was −26.89%. The “Average Raynaud's Pain” value (participants with SSc-RP [1]; Cilnidipine (20 mg) (n = 3)) was 12%, the “Mean pain level at baseline” value (participants with SSc-RP [1]; Cilnidipine (20 mg) (n = 3)) was 2.3 and the “Mean percent change in pain score from baseline” value (participants with SSc-RP [1]; Cilnidipine (20 mg) (n = 3)) was −11.8%. The “Average Raynaud's Pain” value (participants with SSc-RP [1]; Pooled Cilnidipine (n = 7)) was −27%, the “Safety: number of AE” value (participants with SSc-RP [2]; Cilnidipine 20 mg, HA-mild, n = 8) was 1AE (HA-mild; 1 and the “Safety: withdrawals” value (participants with SSc-RP [2]; Cilnidipine 20 mg, n = 8) was 1AE (HA-mild; 1. For the same compound, the “Safety: number of AE” value (participants with SSc-RP [2]; Pooled Cilnidipine, in combo with T, n = 9) was 1AE (in combo with T);, the “Safety: withdrawals” value (participants with SSc-RP [2]; Pooled Cilnidipine, n = 9) was “no withdrawals” and the “incidence of Adverse Events / overall adverse event rate” value (participants with SSc-RP [2]; all patients who received any dose of cilnidipine (n=17)) was 17%. For the same compound, the “tolerability” value (participants with SSc-RP [2]; cilnidipine 10 mg and 20 mg, alone or in combination with tadalafil) was “well tolerated”, the “severity grade of adverse events reported” value (participants with SSc-RP [2]; patients treated with cilnidipine) was “only mild (Grade 1)” and the “Safety: grade of Adverse Events (AEs)” value (participants with SSc-RP [2]; summary of data (Table S)) was “Grade 1 Adverse”. The “Safety: treatment D/Cs (discontinuations)” value (participants with SSc-RP [2]; summary of data (Table S)) was “No treatment D/Cs”.
In the case of `CN1CC(=O)N2[C@H](c3ccc4c(c3)OCO4)c3[nH]c4ccccc4c3C[C@@H]2C1=O` [Tadalafil, tadalafil], the “Average Pain Score, Change From Baseline, Mean” value (participants with SSc-RP [1]; Tadalafil 5 mg (n = 4)) is reported as 0.37, the “Average Pain Score, Percent Change” value (participants with SSc-RP [1]; Tadalafil 5 mg (n = 4)) is reported as 17.20% and the “Average Pain Score [Mean (SD)]” value (participants with SSc-RP [1]; Tadalafil 5 mg (n = 4)) is reported as 5.84 (4.768). The “Safety: worst AE by group” value (participants with SSc-RP [2]; in vivo) was “Worst AE in tadalafil”.
